# Data as given in ChEMBL document CHEMBL1201862, “PubChem BioAssay data set” (2004).
#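 1) Cells in 96-well plates. 2) Compound, 48 h, 5 concentrations. 3) Linear interpolation between surrounding doses. 4) Unreached endpoint = highest concentration. GI50 = concentration required for 50% inhibition of growth.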 The source made the active and inactive calls. Rule as the data show it: active = GI50 up to about 1.1 µM and inactive = higher.
# Key:
# Test in all cases: NCI-60 cell line screen, 48 h
# 786-0 = test system: 786-0
# A549 = test system: A549
# ACHN = test system: ACHN
# BT-549 = test system: BT-549
# CAKI-1 = test system: CAKI-1
# CCRF-CEM = test system: CCRF-CEM
# COLO 205 = test system: COLO 205
# DU-145 = test system: DU-145
# EKVX = test system: EKVX
# HCC 2998 = test system: HCC 2998
# HCT-116 = test system: HCT-116
# HCT-15 = test system: HCT-15
# HL-60 = test system: HL-60
# HOP-62 = test system: HOP-62
# HT-29 = test system: HT-29
# Hs-578T = test system: Hs-578T
# IGROV-1 = test system: IGROV-1
# K562 = test system: K562
# M14 = test system: M14
# MCF7 = test system: MCF7
# MDA-MB-231 = test system: MDA-MB-231
# MDA-MB-435 = test system: MDA-MB-435
# MDA-N = test system: MDA-N
# MOLT-4 = test system: MOLT-4
# Malme-3M = test system: Malme-3M
# NCI-H226 = test system: NCI-H226
# NCI-H23 = test system: NCI-H23
# NCI-H460 = test system: NCI-H460
# NCI-H522 = test system: NCI-H522
# NCI/ADR-RES = test system: NCI/ADR-RES
# OVCAR-3 = test system: OVCAR-3
# OVCAR-4 = test system: OVCAR-4
# OVCAR-5 = test system: OVCAR-5
# OVCAR-8 = test system: OVCAR-8
# PC-3 = test system: PC-3
# RPMI-8226 = test system: RPMI-8226
# RXF 393 = test system: RXF 393
# SF-268 = test system: SF-268
# SF-295 = test system: SF-295
# SF-539 = test system: SF-539
# SK-MEL-28 = test system: SK-MEL-28
# SK-MEL-2 = test system: SK-MEL-2
# SK-MEL-5 = test system: SK-MEL-5
# SK-OV-3 = test system: SK-OV-3
# SN12C = test system: SN12C
# SNB-19 = test system: SNB-19
# SNB-75 = test system: SNB-75
# SR = test system: SR
# SW-620 = test system: SW-620
# T47D = test system: T47D
# TK-10 = test system: TK-10
# UACC-257 = test system: UACC-257
# UO-31 = test system: UO-31
# A498 = test system: A498
# LOX IMVI = test system: LOX IMVI
# U-251 = test system: U-251
# UACC-62 = test system: UACC-62
# KM12 = test system: KM12
smiles,measurement,setting,value
CC1CC(Nc2ccc(Br)cc2)N(C(=O)c2ccc(Br)cc2)O1 (stereo unspecified),GI50,786-0,> 10 µM (inactive)
same,GI50,A549,3.97 µM (inactive)
same,GI50,ACHN,0.678 µM (active)
same,GI50,BT-549,> 10 µM (inactive)
same,GI50,CAKI-1,4.61 µM (inactive)
same,GI50,CCRF-CEM,2.51 µM (inactive)
same,GI50,COLO 205,3.49 µM (inactive)
same,GI50,DU-145,2.62 µM (inactive)
same,GI50,EKVX,> 10 µM (inactive)
same,GI50,HCC 2998,> 10 µM (inactive)
same,GI50,HCT-116,4.42 µM (inactive)
same,GI50,HCT-15,0.526 µM
same,GI50,HL-60,3.76 µM (inactive)
same,GI50,HOP-62,6.49 µM (inactive)
same,GI50,HT-29,1.73 µM (inactive)
same,GI50,Hs-578T,8.3 µM (inactive)
same,GI50,IGROV-1,9.73 µM (inactive)
same,GI50,K562,0.435 µM (active)
same,GI50,M14,> 10 µM (inactive)
same,GI50,MCF7,5.81 µM (inactive)
same,GI50,MDA-MB-231,> 10 µM (inactive)
same,GI50,MDA-MB-435,1.09 µM (active)
same,GI50,MDA-N,8.93 µM (inactive)
same,GI50,MOLT-4,5.74 µM (inactive)
same,GI50,Malme-3M,6.84 µM (inactive)
same,GI50,NCI-H226,> 10 µM (inactive)
same,GI50,NCI-H23,> 10 µM (inactive)
same,GI50,NCI-H460,7.48 µM (inactive)
same,GI50,NCI-H522,8.07 µM (inactive)
same,GI50,NCI/ADR-RES,2.19 µM (inactive)
same,GI50,OVCAR-3,> 10 µM (inactive)
same,GI50,OVCAR-4,> 10 µM (inactive)
same,GI50,OVCAR-5,6.37 µM (inactive)
same,GI50,OVCAR-8,7.4 µM (inactive)
same,GI50,PC-3,2.23 µM (inactive)
same,GI50,RPMI-8226,4.78 µM (inactive)
same,GI50,RXF 393,> 10 µM (inactive)
same,GI50,SF-268,1.25 µM (inactive)
same,GI50,SF-295,2.42 µM (inactive)
same,GI50,SF-539,3.52 µM (inactive)
same,GI50,SK-MEL-28,> 10 µM (inactive)
same,GI50,SK-MEL-2,> 10 µM (inactive)
same,GI50,SK-MEL-5,> 10 µM (inactive)
same,GI50,SK-OV-3,> 10 µM (inactive)
same,GI50,SN12C,2.75 µM (inactive)
same,GI50,SNB-19,> 10 µM (inactive)
same,GI50,SNB-75,8.28 µM (inactive)
same,GI50,SR,2.19 µM (inactive)
same,GI50,SW-620,1.31 µM (inactive)
same,GI50,T47D,9.77 µM (inactive)
same,GI50,TK-10,> 10 µM (inactive)
same,GI50,UACC-257,4.46 µM (inactive)
same,GI50,UO-31,2.34 µM (inactive)
Nc1n[n+]([O-])c2cc([N+](=O)[O-])ccc2[n+]1[O-],GI50,786-0,4.63 µM (inactive)
same,GI50,A498,15.9 µM (inactive)
same,GI50,A549,18.9 µM (inactive)
same,GI50,ACHN,3.35 µM (inactive)
same,GI50,BT-549,18.1 µM (inactive)
same,GI50,CAKI-1,4.33 µM (inactive)
same,GI50,CCRF-CEM,1.62 µM (inactive)
same,GI50,COLO 205,3.85 µM (inactive)
same,GI50,DU-145,16.3 µM (inactive)
same,GI50,EKVX,> 10 µM (inactive)
same,GI50,HCT-116,2.9 µM (inactive)
same,GI50,HCT-15,3.14 µM
same,GI50,HL-60,2.2 µM (inactive)
same,GI50,HOP-62,6.81 µM (inactive)
same,GI50,HT-29,2.53 µM (inactive)
same,GI50,Hs-578T,11 µM (inactive)
same,GI50,IGROV-1,2.87 µM (inactive)
same,GI50,K562,2.14 µM (inactive)
same,GI50,LOX IMVI,1.38 µM (inactive)
same,GI50,M14,4.84 µM (inactive)
same,GI50,MCF7,3.36 µM (inactive)
same,GI50,MDA-MB-231,4.99 µM (inactive)
same,GI50,MDA-MB-435,1.75 µM (inactive)
same,GI50,MDA-N,2.07 µM (inactive)
same,GI50,MOLT-4,0.787 µM (active)
same,GI50,NCI-H226,15.5 µM (inactive)
same,GI50,NCI-H23,13.8 µM (inactive)
same,GI50,NCI-H460,3.31 µM (inactive)
same,GI50,NCI-H522,2.07 µM (inactive)
same,GI50,NCI/ADR-RES,4.36 µM (inactive)
same,GI50,OVCAR-3,1.93 µM (inactive)
same,GI50,OVCAR-4,3.43 µM (inactive)
same,GI50,OVCAR-5,21.2 µM (inactive)
same,GI50,OVCAR-8,3.44 µM (inactive)
same,GI50,PC-3,2.19 µM (inactive)
same,GI50,RPMI-8226,2.11 µM (inactive)
same,GI50,SF-295,10.4 µM (inactive)
same,GI50,SF-539,4.74 µM (inactive)
same,GI50,SK-MEL-28,29 µM (inactive)
same,GI50,SK-MEL-2,15 µM (inactive)
same,GI50,SK-MEL-5,7.71 µM (inactive)
same,GI50,SK-OV-3,10.5 µM (inactive)
same,GI50,SN12C,5.14 µM (inactive)
same,GI50,SNB-19,13.6 µM (inactive)
same,GI50,SNB-75,26.7 µM (inactive)
same,GI50,SR,3.18 µM (inactive)
same,GI50,SW-620,2.22 µM (inactive)
same,GI50,T47D,3.95 µM (inactive)
same,GI50,TK-10,30.2 µM (inactive)
same,GI50,U-251,4.61 µM (inactive)
same,GI50,UACC-257,13.3 µM (inactive)
same,GI50,UACC-62,2.49 µM (inactive)
same,GI50,UO-31,10.5 µM (inactive)
COc1ccc(N2C(=O)C3c4[nH]c5ccc(OCc6ccccc6)cc5c4C4CCC(C(C)(C)C)CC4C3C2=O)cc1 (stereo unspecified),GI50,786-0,27.9 µM (inactive)
same,GI50,A498,> 100 µM (inactive)
same,GI50,A549,> 100 µM (inactive)
same,GI50,ACHN,> 100 µM (inactive)
same,GI50,BT-549,> 100 µM (inactive)
same,GI50,CAKI-1,> 100 µM (inactive)
same,GI50,COLO 205,> 100 µM (inactive)
same,GI50,DU-145,> 100 µM (inactive)
same,GI50,EKVX,> 100 µM (inactive)
same,GI50,HCC 2998,> 100 µM (inactive)
same,GI50,HCT-116,42.4 µM (inactive)
same,GI50,HCT-15,> 100 µM
same,GI50,HL-60,> 100 µM (inactive)
same,GI50,HOP-62,> 100 µM (inactive)
same,GI50,HT-29,> 100 µM (inactive)
same,GI50,Hs-578T,54.2 µM (inactive)
same,GI50,IGROV-1,> 100 µM (inactive)
same,GI50,K562,> 100 µM (inactive)
same,GI50,KM12,> 100 µM (inactive)
same,GI50,LOX IMVI,> 100 µM (inactive)
same,GI50,M14,78.7 µM (inactive)
same,GI50,MCF7,85.3 µM (inactive)
same,GI50,MDA-MB-231,53.2 µM (inactive)
same,GI50,MDA-MB-435,97.7 µM (inactive)
same,GI50,MDA-N,> 100 µM (inactive)
same,GI50,MOLT-4,> 100 µM (inactive)
same,GI50,Malme-3M,25.7 µM (inactive)
same,GI50,NCI-H226,> 100 µM (inactive)
same,GI50,NCI-H23,> 100 µM (inactive)
same,GI50,NCI-H460,> 100 µM (inactive)
same,GI50,NCI-H522,> 100 µM (inactive)
same,GI50,NCI/ADR-RES,63.5 µM (inactive)
same,GI50,OVCAR-3,57.5 µM (inactive)
same,GI50,OVCAR-4,29.8 µM (inactive)
same,GI50,OVCAR-5,> 100 µM (inactive)
same,GI50,OVCAR-8,46.3 µM (inactive)
same,GI50,PC-3,> 100 µM (inactive)
same,GI50,RPMI-8226,> 100 µM (inactive)
same,GI50,RXF 393,> 100 µM (inactive)
same,GI50,SF-268,> 100 µM (inactive)
same,GI50,SF-295,> 100 µM (inactive)
same,GI50,SF-539,46 µM (inactive)
same,GI50,SK-MEL-28,65.6 µM (inactive)
same,GI50,SK-MEL-2,> 100 µM (inactive)
same,GI50,SK-MEL-5,> 100 µM (inactive)
same,GI50,SK-OV-3,> 100 µM (inactive)
same,GI50,SN12C,78.5 µM (inactive)
same,GI50,SNB-19,> 100 µM (inactive)
same,GI50,SR,> 100 µM (inactive)
same,GI50,SW-620,94.6 µM (inactive)
same,GI50,T47D,17.5 µM (inactive)
same,GI50,TK-10,54.5 µM (inactive)
same,GI50,U-251,27.1 µM (inactive)
same,GI50,UACC-257,> 100 µM (inactive)
same,GI50,UACC-62,> 100 µM (inactive)
